We go through 8 molecules from patent publication US20100160297A1, “COMPOUNDS FOR PIM KINASE INHIBITION AND FOR TREATING MALIGNANCY” (Amnestix, Inc., priority 2008, published 2010).

The structures appear in SMILES notation. Entries after “also recorded” stand apart in the source; their conditions may differ. Structures can show the parent of a compound that is named as a salt.

Tested on in the first data set: not given
Experiment: not given
Conditions: not given
The melting point is the temperature of the solid-liquid transition. For `COc1ccc2c(Cl)nccc2c1S(=O)(=O)N1CCCNCC1` (as salt: hydrochloride) [1-chloro-5-([1,4]diazepane-1-sulfonyl)-6-methoxy-isoquinoline], the melting point fell in the range of 219 to 221 °C.

In another data set the target is T1, PIM-1 kinase (Homo sapiens, UniProt P11309).
T1 construct: purchased Cell Signaling Technology Inc., Boston, USA
T1 sequence (P11309 whole entry): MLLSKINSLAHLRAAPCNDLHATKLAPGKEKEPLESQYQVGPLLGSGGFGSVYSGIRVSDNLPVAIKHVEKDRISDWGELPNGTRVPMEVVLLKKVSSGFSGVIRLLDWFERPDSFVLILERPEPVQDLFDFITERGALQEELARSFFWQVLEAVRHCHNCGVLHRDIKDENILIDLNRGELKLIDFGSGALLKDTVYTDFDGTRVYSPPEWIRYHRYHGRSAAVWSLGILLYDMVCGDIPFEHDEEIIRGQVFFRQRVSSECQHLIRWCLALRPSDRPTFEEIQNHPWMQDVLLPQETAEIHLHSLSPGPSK
The data set is described as follows: In vitro assay for PIM-1 kinase inhibition (PIM-1 Kinase Assay Kit, colorimetric ELISA). The note with it: test compound 100 μM final concentration; normalized to positive control (no test compound) = 100% activity; 1.5 or 2.5 ng PIM-1 kinase, 200 μM ATP. The class given is biochemical. The protocol: In vitro assays of PIM-1 kinase activity (1.5 ng) in the presence of increasing concentrations of the compounds A, B, C or D were performed as described within example 5. An assay without additional test compound served as positive control for the assay (pos) and an assay without PIM-1 kinase served as negative assay (neg). […] Each assay result was normalized in comparison to the positive control which was defined as 100% activity.
In vitro assays of PIM-1 kinase activity (2.5 ng) in the presence of increasing concentrations of the compound E were performed as described within example 5. An assay without additional test compound served as positive control for the assay (pos) and an assay without PIM-1 kinase served as negative assay (neg). […] Each assay result was normalized in comparison to the positive control which was defined as 100% activity.
The in vitro assay for PIM-1 kinase inhibition was performed using the PIM-1 Kinase Assay Kit (Cell Signaling Technology Inc., Boston, USA) according to the manufacture's instruction. Briefly, 1.5 or 2.5 ng PIM-1 kinase has been dissolved in 50 μl assay buffer (25 mM Tris-Hcl (pH 7.5), 10 mM MgCl2, 5 mM beta-glycerophosphate, 0.1 mM Na3VO4, 2 mM DTT, 200 μM ATP, and 1.5 μM peptide substrate) and test compound has been added to a final concentration in a range of 0.1 to 100 μM. After 30 minutes incubation at ambient temperature the reaction was stopped by adding 50 μl Stop buffer (50 mM EDTA, pH 8) per reaction. An aliquot of 25 μl per reaction was diluted each by 75 μl water and transferred to a 96-well streptavidin-coated plate. After 60 minutes incubation and three times washing with PBS, 100 μl/well primary antibody (Phospho-Bad (Ser112) antibody, 1:1000 diluted in PBS) was added. After further 2 h incubation and three times washing with PBS, an usual colorimetric ELISA assay was performed using a HRP labeled second antibody according to the manufacture's instructions. A PIM kinase reaction without addition of a test compound served as positive control (pos) and an assay without PIM kinase served as negative control (neg). […] The PIM-1 kinase inhibition of the test compounds (1-chloro-5-([1,4]diazepane-1-sulfonyl)-8-propoxy-isoquinoline (compound A), 1-chloro-5-(piperazin-1-sulfonyl)-8-methoxy-isoquinoline (compound B), 1-methyl-5-([1,4]diazepane-1-sulfonyl)-8-methoxy-isoquinoline (compound C), and 1-chloro-5-([1,4]diazepane-1-sulfonyl)-6-methoxy-isoquinoline (compound D)) was measured in a first series of assays, and the one of the compound 5-([1,4]diazepane-1-sulfonyl)-8-methoxy-isoquinoline (compound E) was measured in a second series of assays. Within each series of assays the measured PIM-1 kinase activity was normalized in comparison to the positive control (pos) which was defined as 100% activity. […] The table below summarizes the percentage of the remaining PIM-1 kinase activity in the presence of the test compounds in a final concentration of 100 μM.
Consider `COc1ccc(S(=O)(=O)N2CCCNCC2)c2ccnc(Cl)c12` [G, 1-chloro-8-methoxy-Fasudil, reference compound], for which the “% remaining PIM-1 kinase activity” value worked out at 17%.

The data set is the same for the next values; noted with them: test compound 0.1 to 100 μM; FIG. 1 (1.5 ng PIM-1) and FIG. 2 (2.5 ng PIM-1).
In the case of `COc1ccc(S(=O)(=O)N2CCNCC2)c2ccnc(Cl)c12` [B, 1-chloro-5-(piperazin-1-sulfonyl)-8-methoxy-isoquinoline], the “PIM-1 kinase inhibition (result in words)” value (from here on “PIM-1 kinase inhibition”) is “potent PIM inhibitory effect; also recorded: potent PIM-1 kinase inhibitors”. Still for that read-out and setting: as for `COc1ccc(S(=O)(=O)N2CCCNCC2)c2ccnc(C)c12` [C, 1-methyl-5-([1,4]diazepane-1-sulfonyl)-8-methoxy-isoquinoline], the entry is “potent PIM inhibitory effect; also recorded: potent PIM-1 kinase inhibitors”; as for `CCCOc1ccc(S(=O)(=O)N2CCCNCC2)c2ccnc(Cl)c12` [Compound A, 1-chloro-5-([1,4]diazepane-1-sulfonyl)-8-propoxy-isoquinoline], “potent PIM inhibitory effect; also recorded: potent PIM-1 kinase inhibitors”. Still for that read-out and setting: as for `COc1ccc2c(Cl)nccc2c1S(=O)(=O)N1CCCNCC1` [D, 1-chloro-5-([1,4]diazepane-1-sulfonyl)-6-methoxy-isoquinoline], the entry is “potent PIM inhibitory effect; also recorded: potent PIM-1 kinase inhibitors”. Consider `COc1ccc(S(=O)(=O)N2CCCNCC2)c2ccncc12` [E, 5-([1,4]diazepane-1-sulfonyl)-8-methoxy-isoquinoline], for which the “PIM-1 kinase inhibition” value is reported as “at most a moderate PIM-1 kinase inhibition; also recorded: only weak PIM inhibitory effect”.

As to `O=S(=O)(c1cccc2cnccc12)N1CCCNCC1` [F, Fasudil, reference compound], the “PIM-1 kinase inhibition” value is listed as “at the most very weak PIM-1 inhibition”.

`COc1ccc(S(=O)(=O)N2CCCNCC2)c2ccnc(Cl)c12` [G, 1-chloro-8-methoxy-Fasudil, reference compound]: the “PIM-1 kinase inhibition” value is “very potent PIM-1 inhibitor”.
